Converted amounts (≈) assume the structure as drawn. Where two headings read alike, the source gives them in different places.
Key:
[1] = tested on: Klebsiella pneumoniae strain ATCC13883; experiment: Antimicrobial activity, MIC by broth microdilution; type: cell-based; settings: Table 4, 35° C., 18 hours, read-out: Klebsiella pneumoniae ATCC 13883 strain MIC
Source text: (§1) Test 3: Evaluation of Antimicrobial Activity For minimum inhibitory concentration (MIC) measurement, the following broth microdilution method was applied as adapted from the standard procedure recommended by the CLSI (Clinical and Laboratory Standards Institute). The bacteria used were Pseudomonas aeruginosa strain TS88 (clinical isolate), E. coli strain ATCC25922, and Klebsiella pneumoniae strain ATCC13883. After culture overnight on a heart infusion agar medium, the cells of a test bacterium were scraped off and suspended to give a turbidity of level 0.5 on the McFarland scale; the suspension was then diluted 10 fold to prepare an inoculum solution. A 0.005 mL aliquot of the inoculum solution was inoculated in a cation-adjusted Mueller-Hinton broth medium containing a test compound and cultured at 35° C. for 18 hours. A minimum drug concentration at which no cell growth was visible to the naked eye was designated as MIC.

[2] = tested on: E. coli strain ATCC25922; experiment: Antimicrobial activity, MIC by broth microdilution; type: cell-based; settings: Escherichia coli, Table 4, 35° C., 18 hours, read-out: E. coli ATCC 25922 strain MIC
Source text: as §1

[3] = tested on: Pseudomonas aeruginosa strain TS88 (clinical isolate); experiment: Antimicrobial activity, MIC by broth microdilution; type: cell-based; settings: 18 hours
Source text: as §1

[4] = target: Pseudomonas aeruginosa LpxC enzyme (Pseudomonas aeruginosa (strain ATCC 15692 / DSM 22644 / CIP 104116 / JCM 14847 / LMG 12228 / 1C / PRS 101 / PAO1), UniProt P47205); experiment: biochemical; type: biochemical
[5] = Table 4, 35° C., read-out: Pseudomonas aeruginosa TS88 strain MIC
[6] = Table 1, 35° C., read-out: MIC Pseudomonas aeruginosa TS88 strain
[7] = Table 1, read-out: Pseudomonas aeruginosa LpxC IC50

SMILES | MIC [1] [µg/mL] | MIC [2] [µg/mL] | MIC [3, 5] [µg/mL] | MIC [3, 6] [µg/mL] | IC50 [4, 7] [nM] | other results
CNC(=O)C(C(=O)NO)N(C)C(=O)c1ccc(-c2ccc(C#CCOC)cc2)cc1 (stereo not drawn) [Compound 405, N-hydroxy-2-[{[4′-(3-methoxyprop-1-yn-1-yl)biphenyl-4-yl]carbonyl}(methyl)amino]-N′-methylpropanediamide] | 4 (≈ 9.77 µM) | 0.5 (≈ 1.22 µM) | 0.5 (≈ 1.22 µM) |  |  | IC50 ([4]; Table 4, read-out: Pseudomonas aeruginosa LpxC IC50): 2.9 nM; IC50 ([4]; inhibitory activity on Pseudomonas aeruginosa LpxC enzyme, class symbols A/B/C, read-out: Enzyme inhibitory activity): < 10 nM
CNC(=O)C(C(=O)NO)N(C)C(=O)c1ccc(-c2ccc(C)cc2)cc1 (stereo not drawn) [Compound 5, N-hydroxy-N′-methyl-2-{methyl[(4′-methylbiphenyl-4-yl)carbonyl]amino}propanediamide] |  |  |  | 0.25 (≈ 0.703 µM) | 3.7 | 
CNC(=O)C(C(=O)NO)N(C)C(=O)c1ccc(-c2ccc(COC)cc2)cc1 (stereo not drawn) [Compound 4, N-hydroxy-2-[{[4′-(methoxymethyl)biphenyl-4-yl]carbonyl}(methyl)amino]-N′-methylpropanediamide] |  |  |  | 1 (≈ 2.59 µM) | 6.1 | 
CNC(=O)[C@@](C)(C(=O)NO)N(C)C(=O)c1ccc(-c2ccc(SC)cc2)cc1 [Compound 406, (2S)-N-hydroxy-N′,2-dimethyl-2-(methyl {[4′-(methylsulfanyl)biphenyl-4-yl]carbonyl}amino)propanediamide] | 0.5 (≈ 1.25 µM) | 0.125 (≈ 0.311 µM) | 0.5 (≈ 1.25 µM) |  |  | 
CNC(=O)C(C(=O)NO)N(C)C(=O)c1ccc(C#Cc2ccccc2)cc1 (stereo not drawn) [Compound 218, N-hydroxy-N′-methyl-2-{methyl[4-(phenylethynyl)benzoyl]amino}propanediamide] |  |  |  | 1 (≈ 2.74 µM) | 7.2 | 
CNC(=O)C(C(=O)NO)N(C)C(=O)c1ccc(-c2ccccc2)cc1 (stereo not drawn) [Compound 1, 2-[(Biphenyl-4-ylcarbonyl)(methyl)amino]-N-hydroxy-N′-methylpropanediamide] |  |  |  | 0.5 (≈ 1.46 µM) | 7.7 | 
CNC(=O)C(C(=O)NO)N(C)C(=O)c1ccc(-c2ccc(N(C)C)cc2)cc1 (stereo not drawn) [Compound 43, 2-[{[4′-(dimethylamino)biphenyl-4-yl]carbonyl}(methyl)amino]-N-hydroxy-N′-methylpropanediamide] |  |  |  | 1 (≈ 2.6 µM) | 7.2 | 
CNC(=O)C(C(=O)NO)N(C)C(=O)c1ccc(-c2ccc(OCCO)cc2)cc1 (stereo not drawn) [Compound 153, N-hydroxy-2-[{[4′-(2-hydroxyethoxy)biphenyl-4-yl]carbonyl}(methyl)amino]-N′-methylpropanediamide] |  |  |  | 2 (≈ 4.98 µM) | 5.7 | 
Cc1cc(CNC(=O)C(C(=O)NO)N(C)C(=O)c2ccc(-c3ccccc3)cc2)no1 (stereo not drawn) [Compound 172, 2-[(Biphenyl-4-ylcarbonyl)(methyl)amino]-N-hydroxy-N′-[(5-methyl-1,2-oxazol-3-yl)methyl]propanediamide] |  |  |  | 2 (≈ 4.73 µM) | 7.1 | 
CNC(=O)C(C(=O)NO)N(C)C(=O)c1ccc(-c2ccccc2)c(F)c1 (stereo not drawn) [Compound 61, 2-{[(2-fluorobiphenyl-4-yl)carbonyl](methyl)amino}-N-hydroxy-N′-methylpropanediamide] |  |  |  | 2 (≈ 5.57 µM) | 9.2 | 
CNC(=O)[C@@](C)(C(=O)NO)N(C)C(=O)c1ccc(C#Cc2ccc(C3(NC)CC3)cc2)cc1 [Compound 435, (2S)-N-hydroxy-N′,2-dimethyl-2-(methyl {[4-({4-[1-(methylamino)cyclopropyl]phenyl}ethynyl)phenyl]carbonyl}amino)propanediamide] | 2 (≈ 4.46 µM) | 1 (≈ 2.23 µM) | 1 (≈ 2.23 µM) |  |  | 
CNC(=O)[C@@](C)(C(=O)NO)N(C)C(=O)c1ccc(C#Cc2ccc(CN3CC(OCCF)C3)cc2)cc1 [Compound 559, (2S)-2-[({4-[(4-{[3-(2-fluoroethoxy)azetidin-1-yl]methyl}phenyl)ethynyl]phenyl}carbonyl)(methyl)amino]-N-hydroxy-N′,2-dimethylpropanediamide] | 1 (≈ 1.96 µM) | 0.25 (≈ 0.49 µM) | 1 (≈ 1.96 µM) |  |  | 
CNC(=O)[C@@](C)(C(=O)NO)N(C)C(=O)c1ccc(C#Cc2ccc(CNC3CC3)cc2)cc1 [Compound 553, (2S)-2-[{[4-({4-[(cyclopropylamino)methyl]phenyl}ethynyl)phenyl]carbonyl}(methyl)amino]-N-hydroxy-N′,2-dimethylpropanediamide] | 0.5 (≈ 1.11 µM) | 0.25 (≈ 0.557 µM) | 0.5 (≈ 1.11 µM) |  |  | 
CNC(=O)[C@@](C)(C(=O)NO)N(C)C(=O)c1ccc(C#Cc2ccc(CN3CCC(OC)CC3)cc2)cc1 [Compound 565, (2S)-N-hydroxy-2-[{[4-({4-[(4-methoxypiperidin-1-yl)methyl]phenyl}ethynyl)phenyl]carbonyl}(methyl)amino]-N′,2-dimethylpropanediamide] | 2 (≈ 3.95 µM) | 0.5 (≈ 0.987 µM) | 1 (≈ 1.97 µM) |  |  | 
CNC(=O)C(C(=O)NO)N(C)C(=O)c1ccc(-c2ccc(CF)cc2)cc1 (stereo not drawn) [Compound 237, 2-[{[4′-(fluoromethyl)biphenyl-4-yl]carbonyl}(methyl)amino]-N-hydroxy-N′-methylpropanediamide] |  |  |  | 0.5 (≈ 1.34 µM) | 4.5 | 
CNC(=O)C(C(=O)NO)N(C)C(=O)c1ccc(-c2ccc(OC(F)(F)F)cc2)cc1 (stereo not drawn) [Compound 52, N-hydroxy-N′-methyl-2-(methyl {[4′-(trifluoromethoxy)biphenyl-4-yl]carbonyl}amino)propanediamide] |  |  |  | 1 (≈ 2.35 µM) | 4.6 | 
CNC(=O)C(C(=O)NO)N(C)C(=O)c1ccc(-c2ccc3c(c2)CCO3)cc1 (stereo not drawn) [Compound 188, 2-{[4-(2,3-dihydro-1-benzofuran-5-yl)benzoyl](methyl)amino}-N-hydroxy-N′-methylpropanediamide] |  |  |  | 0.5 (≈ 1.3 µM) | 5 | 
CNC(=O)C(C(=O)NO)N(C)C(=O)c1ccc(-c2ccc3c(c2)OC(OC)O3)cc1 (stereo not drawn) [Compound 94, N-hydroxy-2-{[4-(2-methoxy-1,3-benzodioxol-5-yl)benzoyl](methyl)amino}-N′-methylpropanediamide] |  |  |  | 2 (≈ 4.81 µM) | 5.6 | 
CNC(=O)[C@@](C)(C(=O)NO)N(C)C(=O)c1ccc(C#Cc2ccc(CNCc3ccco3)cc2)cc1 [Compound 417, (2S)-2-[({4-[(4-{[(furan-2-ylmethyl)amino]methyl}phenyl)ethynyl]phenyl}carbonyl)(methyl)amino]-N-hydroxy-N′,2-dimethylpropanediamide] | 0.25 (≈ 0.512 µM) | 0.0625 (≈ 0.128 µM) | 0.5 (≈ 1.02 µM) |  |  | 
CNC(=O)C(C(=O)NO)N(C)C(=O)c1ccc(-c2ccc3c(c2)CCN3C)cc1 (stereo not drawn) [Compound 40, N-hydroxy-N′-methyl-2-{methyl[4-(1-methyl-2,3-dihydro-1H-indol-5-yl)benzoyl]amino}propanediamide] |  |  |  | 1 (≈ 2.52 µM) | 4.7 | 
CNC(=O)C(C(=O)NO)N(C)C(=O)c1ccc(-c2ccc(F)cc2)cc1 (stereo not drawn) [Compound 6, 2-{[(4′-fluorobiphenyl-4-yl)carbonyl](methyl)amino}-N-hydroxy-N′-methylpropanediamide] |  |  |  | 1 (≈ 2.78 µM) | 7.1 | 
CNC(=O)C(C(=O)NO)N(C)C(=O)c1ccc(-c2ccc3c(c2)OCO3)cc1 (stereo not drawn) [Compound 8, 2-{[4-(1,3-benzodioxol-5-yl)benzoyl](methyl)amino}-N-hydroxy-N′-methylpropanediamide] |  |  |  | 0.5 (≈ 1.3 µM) | 5 | 
CNC(=O)C(C(=O)NO)N(C)C(=O)c1ccc(-c2ccc3c(c2)OCC3)cc1 (stereo not drawn) [Compound 271, 2-{[4-(2,3-dihydro-1-benzofuran-6-yl)benzoyl](methyl)amino}-N-hydroxy-N′-methylpropanediamide] |  |  |  | 0.5 (≈ 1.3 µM) | 5 | 
CNC(=O)C(C(=O)NO)N(C)C(=O)c1ccc(-c2ccc(NCCCCCN3CCOCC3)cc2)cc1 (stereo not drawn) [Compound 58, N-hydroxy-N′-methyl-2-{methyl[(4′-{[5-(morpholin-4-yl)pentyl]amino}biphenyl-4-yl)carbonyl]amino}propanediamide] |  |  |  | 4 (≈ 7.82 µM) | 8.3 | 
CNC(=O)[C@@](C)(C(=O)NO)N(C)C(=O)c1ccc(C#Cc2ccc(CN3CC4(COC4)C3)cc2)cc1 [Compound 416, (2S)-N-hydroxy-N′,2-dimethyl-2-{methyl[(4-{[4-(2-oxa-6-azaspiro[3.3]hept-6-ylmethyl)phenyl]ethynyl}phenyl)carbonyl]amino}propanediamide] | 2 (≈ 4.08 µM) | 0.5 (≈ 1.02 µM) | 1 (≈ 2.04 µM) |  |  | 
CCOC1CN(Cc2ccc(C#Cc3ccc(C(=O)N(C)C(C(=O)NC)C(=O)NO)cc3)cc2F)C1 (stereo not drawn) [Compound 563, 2-[{[4-({4-[(3-ethoxyazetidin-1-yl)methyl]-3-fluorophenyl}ethynyl)phenyl]carbonyl}(methyl)amino]-N-hydroxy-N′-methylpropanediamide] | 4 (≈ 8.06 µM) | 1 (≈ 2.01 µM) | 1 (≈ 2.01 µM) |  |  | IC50 ([4]; class symbols A/B/C by IC50, Table 3, read-out: Enzyme inhibitory activity (inhibitory activity on Pseudomonas aeruginosa LpxC enzyme)): < 10 nM
CNC(=O)C(C(=O)NO)N(C)C(=O)c1ccc(-c2ccc(C(F)(F)F)cc2)cc1 (stereo not drawn) [Compound 56, N-hydroxy-N′-methyl-2-(methyl {[4′-(trifluoromethyl)biphenyl-4-yl]carbonyl}amino)propanediamide] |  |  |  | 1 (≈ 2.44 µM) | 6.7 | 
